Measurements published in patent publication US7763439B2, “Two-photon absorbing dipyrrometheneboron difluoride dyes and their applications” (Arctic Diagnostics Oy, priority 2001, dated 2010).

How the values were obtained:
[1] = Two-photon fluorescence yields of dyes in solution, laser with high two-photon excitation efficiency; format: physicochemical; conditions: 100 nM dye in ethanol (R-PE in PBS pH 7.4); 1064 nm Nd:YAG microchip laser; normalised to Rhodamine B (100)
Text: (§1) FIG. 1 is a plot of two-photon excitations vs. illumination intensity. At low illumination intensities (A) excitation follows a quadratic dependence of the illumination intensity. In order to maximise the two-photon excited fluorescence a dye should be excited close to saturation level (B). At saturation level (C) almost all of the dye molecules become excited. FIG. 2a present alkyl substituted dipyrrometheneboron difluoride dyes described in examples 1-3 as compounds 1-3. FIGS. 2b and 2c present heteroaryl substituted dipyrrometheneboron difluoride dyes described in examples 4-9 as compounds 4-9. X^+ is a cationic counterion. FIG. 2d presents phenyl substituted dipyrrometheneboron difluoride dyes described in examples 10 and 11 as compounds 10 and 11. X^+ is a cationic counterion. FIGS. 2e and 2f present phenylethenyl substituted dipyrromethene-boron difluoride dyes described in examples 12 and 13 as compounds 12 and 13. X^+ is a cationic counterion. FIGS. 2g and 2h present thienyl substituted dipyrrometheneboron difluoride dyes with amino-, arylamino-, maleimide- and isothiocyanate reactive groups described in examples 14-17 as compounds 14-17. X^+ is a cationic counterion. FIG. 3 presents a linker compound 18 that is used to increase solubility of the dyes in aqueous solutions. X^+ is a cationic counter-ion. FIG. 4 is a plot of two-photon fluorescence signal vs. analyte (AFP) concentration in an immunoassay based on two-photon fluorescence as described in example 21. The AFP concentration 0 ng/ml is presented as a concentration of 0.1 ng/ml because of the logarithmic scale used in FIG. 4. FIG. 5 is an optical scheme of the instrument used in two-photon fluorescence measurements. A passively Q-switched Nd:YAG microchip laser 1 is used as an illumination source for two-photon excited fluorescence. The wavelength of the laser is 1064 nm, the pulse duration is 1 ns and the repetition rate is 20 kHz. The naturally diverging laser light beam is directed with a dichroich mirror 2 through an optical scanner unit 3 to the entrance aperture of the objective lens 4. The illumination at the entrance aperture is gaussian filling about 70% of the full aperture. The objective lens then focuses the illumination light into a special cuvette 5 that has a thin optical bottom (thickness 0.2 mm). The average optical output power reaching the sample is 50 mW. The size of the focal volume is about 1 femtoliter. The two-photon excited fluorescence signal in the range 540-700 nm is collected from the full aperture of the objective lens 4 and directed through the dichroich mirror 2 and the band pass filter 6 to the photomultiplier tube 7. In case of particle measurements, both the two-photon excited fluorescence light and the microparticle back-scattered (reflected) laser light are measured. The dichroich mirror 2 and the 2% beam splitting window 8 deflect the back-scattered light to the pinhole 9 making the detection of the scattering signal confocal. The detector for the scattering signal is a near infrared GaAs pin photodiode 10. The particles are continuously tracked by using a three-dimensional beam scanner 3. The xy-scanner is optomechanical and is positioned as close to the entrance aperture of the objective lens as possible. […] Optical pressure caused by the illuminating laser beam traps the particle and guides it through the centre of laser beam focus. The fluorescence signal is measured while the particle is in focus i.e. the back scattering signal exceeds the preset threshold. In addition to xy-scanning a further z-scanning movement is performed by moving the objective slowly in the axial direction. The amplitude of this movement is 150 μm and the movement is not stopped for particle measurement. Despite of slow z-scanning the particle remains in the focus on basis of optical trapping forces.
The two-photon fluorescence yields were measured using experimental apparatus shown schematically in FIG. 5. […]

[2] = Single pulse effect: z-response, 20% to 80% fluorescence intensity distance in dye solution; format: physicochemical; conditions: dye solution between two microscope slides; two-photon excitation
Text: as §1
The direct measurement of quenching by single pulse effect is difficult. […]

Compound | Normalised two-photon fluorescence yield [1] [a.u.] | 20% to 80% fluorescence intensity distance values [2] [a.u.]
4,4-difluoro-1,3,5,7-tetramethyl-6-carboxyethyl-4-bora-3a,4a-diaza-s-indacene-2-propionic acid succinimidylester [Compound 3] | 18 | 11.5
O=C(O)CCC1=[N+]2C(=Cc3c(-c4ccccc4)cc(-c4ccccc4)n3[B-]2(F)F)C=C1 [BODIPY 530/550] | 66 | 12.2
Glu-Tau-succinimide derivative of 4,4-difluoro-5-(2-thienyl)-1,3-dimethyl-4-bora-3a,4a-diaza-s-indacene-2-propionic acid [Compound 8] | 219 | 12.6
R-phycoerythrin [R-PE] | 618 | 21.5
O=C(O)CCC1=[N+]2C(=Cc3ccc(-c4cccs4)n3[B-]2(F)F)C=C1 [BODIPY 558/568] | 101 | 13.7
CCN(CC)c1ccc2c(-c3ccccc3C(=O)O)c3ccc(=[N+](CC)CC)cc-3oc2c1.[Cl-] [Rhodamine B] | 100 | 16.5
